According to patent publication US20110119780A1, “SCREENING FOR NON-GENOTOXIC CARCINOGENS” (priority 2008, published 2011):
Where “and” joins values, the source holds several entries; their conditions need not be identical. Identical values can stand only once. Like-named read-outs stand apart in the source and are kept apart here.

Columns and labels:
[1] = parameters: species or system mice; conditions: mouse, in vivo, po, 50 mg/kg
Method: Animals were treated either with 4 daily doses of Wy-14,643/corn oil (50 mg/kg, orally) or with corn oil alone, as shown in Table 2. Approximately 24 hr after the last dose, all mice were sacrificed using an increasing concentration of CO2. Liver and plasma were collected for analysis. Following treatment with Wy-14,643 or the vehicle (corn oil), the mice were sacrificed and their livers removed and weighed. […] The concentration of inducing agent was of supplied chemical, without any correction for purity. The volume administered was 10 ml/kg bodyweight. […] On the day of termination the mice were weighed, the body weights recorded, and then transferred to a suitable room for post mortem. Approximately 24 hrs after treatment, the mice will be killed by exposure to a rising concentration of CO2.

[2] = assay type: in vivo, mice; conditions: for Diluted Chol / Diluted HDL / Diluted LDL / Diluted Trig: dilution factor 2; for Diluted Chol / Diluted HDL / Diluted LDL / Diluted Trig / Normalised Chol / Normalised HDL / Normalised LDL / Normalised Trig: individual mice
Method: The plasma was processed by taking blood from the terminated mice by cardiac puncture into lithium/heparin-coated tubes. Following removal into suitable tubes for plasma preparation, terminal blood samples taken by cardiac puncture were mixed on a roller for 10 min then cooled on ice. Red blood cells were removed by centrifugation (2,000-3,000 rpm for 10 min at 8-10° C.). Immediately after centrifugation, the supernatant (plasma) was collected in eppendorfs and kept on wet ice. Plasma was transferred into cryovials for clinical chemistry and immediately flash frozen in liquid nitrogen, then stored at approximately −70° C. […] In order to investigate potential hepatotoxicity caused by Wy-14,643 treatment, markers of liver damage, alanine aminotransferase (ALT), aspartate aminotransferase (AST) and alkaline phosphatase (ALP) were measured in WT and hPPARα mice (Tables 6-8). Liver related plasma biomarkers, albumin (ALB), conjugated and total bilirubin (BIL-D and BIL-T respectively), cholesterol, high density lipoprotein (HDL-C), low density lipoprotein (LDL-C) and triglycerides were also investigated in all available plasma samples in order to characterise basal hepatic function in hPPARα mice relative to WT mice (Tables 9-15).

Cyp4a protein = conditions: WT mice; liver microsomes; 50 mg/kg orally x4 daily
Method: Henderson, University of Dundee, UK). The standard used was APFO-induced WT rat liver microsomes (1 μg protein loaded).
To investigate the downstream effects of PPARα activation, the expression of Cyp4a proteins was evaluated by immunoblot analysis in liver microsomes from WT and hPPARα mice.
Individual liver microsomal samples were analysed by immunoblotting for Cyp4a. Protein concentration was measured using the CXR microlowry method. Quantification of Cyp4a protein in mouse liver microsomes was carried out. A murine his-tagged Cyp4a recombinant standard was loaded onto the NU-PAGE gel.

[3] = tested on: cyanide-insensitive palmitoyl-CoA oxidation; assay: Cyanide-insensitive palmitoyl CoA oxidation in mouse liver (crude mitochondria); assay type: in vivo; conditions: for PCO oxidation, NAD + red.: crude mitochondrial fraction of liver, 50 mg/kg orally x4 daily, individual mice, 50 mg/kg
Method: Measurements of cyanide-insensitive pCoA oxidation in crude mitochondrial fractions were performed as described.

Cyp4a activity = conditions: mouse, in vivo
Method: Lauric acid hydroxylation activity measurements in liver microsomes were performed.
Liver microsomes from each available animal were evaluated for Cyp4a activity by measuring lauric acid hydroxylation (FIG. 19, Tables 17-18).

[4] = WT mice, plasma, 50 mg/kg orally x4 daily, 50 mg/kg
[5] = WT mice, plasma, 50 mg/kg orally x4 daily, n = 3
[6] = WT mice, plasma, % mean own control
[7] = hPPARα mice, plasma, 50 mg/kg orally x4 daily, 50 mg/kg

For `Cc1cccc(Nc2cc(Cl)nc(SCC(=O)O)n2)c1C` [Wy-14,643], the “Body weights, % Mean” value [1] was 98%, the “Body weights, Mean” value [1] was 26 g and the “Liver body weight ratios, % Mean” value [1] was 139%. The “Liver body weight ratios, Mean” value [1] was 6.46%, the “Liver weights, % Mean” value [1] was 135% and the “Liver weights, Mean” value [1] was 1.69 g. The “triglyceride concentrations, decrease compared to corresponding control mice” value ([2]; WT mice, p<0.05) was ~50%, the “Diluted Chol” value [2, 4] was 1.25 mmol/L and 1.02 mmol/L and 1.40 mmol/L and the “Diluted HDL” value [2, 4] was 1.28 mmol/L and 1.02 mmol/L and 1.36 mmol/L. The “Diluted LDL” value [2, 4] was 0.12 mmol/L and 0.08 mmol/L and 0.14 mmol/L, the “Diluted Trig” value [2, 4] was 0.27 mmol/L and 0.21 mmol/L and 0.31 mmol/L and the “Normalised Chol” value [2, 4] was 2.50 mmol/L and 2.04 mmol/L and 2.80 mmol/L. The “Normalised HDL” value [2, 4] was 2.56 mmol/L and 2.04 mmol/L and 2.72 mmol/L, the “Normalised LDL” value [2, 4] was 0.24 mmol/L and 0.16 mmol/L and 0.28 mmol/L and the “Normalised Trig” value [2, 4] was 0.54 mmol/L and 0.42 mmol/L and 0.62 mmol/L. For the same compound, the “Cholesterol, Mean” value [2, 5] was 2.45 mmol/L, the “HDL, Mean” value [2, 5] was 2.44 mmol/L and the “LDL, Mean” value [2, 5] was 0.23 mmol/L. The “Triglycerides, Mean” value [2, 5] was 0.53 mmol/L, the “Cholesterol, % Mean” value [2, 6] was 97% and the “HDL, % Mean” value [2, 6] was 103%. For the same compound, the “LDL, % Mean” value [2, 6] was 89%, the “Triglycerides, % Mean” value [2, 6] was 56% and the “Diluted Chol” value [2, 7] was 1.18 mmol/L and 1.47 mmol/L. The “Diluted HDL” value [2, 7] was 1.14 mmol/L and 1.46 mmol/L, the “Diluted LDL” value [2, 7] was 0.07 mmol/L and 0.11 mmol/L and the “Diluted Trig” value [2, 7] was 0.64 mmol/L and 0.60 mmol/L. The “Normalised Chol” value [2, 7] was 2.36 mmol/L and 2.94 mmol/L, the “Normalised HDL” value [2, 7] was 2.28 mmol/L and 2.92 mmol/L and the “Normalised LDL” value [2, 7] was 0.14 mmol/L and 0.22 mmol/L. For the same compound, the “Normalised Trig” value [2, 7] was 1.28 mmol/L and 1.20 mmol/L, the “ALP, % Mean” value ([2]; mouse, in vivo) was 129% and the “ALT, % Mean” value ([2]; mouse, in vivo) was 117%. For the same compound, the “AST, % Mean” value ([2]; mouse, in vivo) was 121%, the “Albumin, % Mean” value ([2]; mouse, in vivo) was 101% and the “BIL-D, % Mean” value ([2]; mouse, in vivo) was 22%. The “BIL-T, % Mean” value ([2]; mouse, in vivo) was 69%, the “ALP, Mean” value ([2]; mouse, in vivo, po, 50 mg/kg) was 129 U/L and the “ALT, AST and ALP concentration (plasma markers of hepatotoxicity)” value ([2]; mouse, in vivo, po, 50 mg/kg) was “unaltered”. For the same compound, the “ALT, Mean” value ([2]; mouse, in vivo, po, 50 mg/kg) was 34 U/L, the “AST, Mean” value ([2]; mouse, in vivo, po, 50 mg/kg) was 119 U/L and the “Albumin, Mean” value ([2]; mouse, in vivo, po, 50 mg/kg) was 38 g/L. For the same compound, the “BIL-D, Mean” value ([2]; mouse, in vivo, po, 50 mg/kg) was 0.08 µmol/L, the “BIL-T, Mean” value ([2]; mouse, in vivo, po, 50 mg/kg) was 17 µmol/L and the Plasma albumin levels ([2]; mouse, in vivo, po, 50 mg/kg) was “unaltered”. For the same compound, the “triglyceride concentrations, decrease compared to corresponding control mice” value ([2]; the two hPPARα mice) was 25% and 29%, the “Cyp4a protein expression (immunoblot, 50 kD band)” value (Cyp4a protein) was “marked induction” and the “PCO oxidation, % MEAN” value ([3]; WT mice, % mean own control) was 265%. For the same compound, the “PCO oxidation, NAD + red.” value ([3]; WT mice) was 79 nmol/min/mg and 73 nmol/min/mg and 82 nmol/min/mg, the “PCO oxidation, NAD + red., MEAN” value ([3]; WT mice, n = 3) was 78 nmol/min/mg and the “cyanide-insensitive pCoA oxidation, induction relative to vehicle controls” value ([3]; both mouse lines (WT, hPPARα), crude mitochondrial fractions) was “approximately 3 fold”. The “PCO oxidation, NAD + red.” value ([3]; hPPARα mice) was 41 nmol/min/mg and 53 nmol/min/mg, the “Formation of 11-OH lauric acid, % MEAN” value (Cyp4a activity) was 308% and the “Formation of 11-OH lauric acid, MEAN” value (Cyp4a activity) was 3.0 nmol/min/mg. For the same compound, the “Formation of 12-OH lauric acid, % MEAN” value (Cyp4a activity) was 1669% and the “Formation of 12-OH lauric acid, MEAN” value (Cyp4a activity) was 9.2 nmol/min/mg.
